These are literature values, as cited in patent publication US7923440B2, “Method of treating or preventing immune mediated disorders and pharmaceutical formulation for use therein” (Pantarhei Bioscience B.V., priority 2002, dated 2011).

The target of the data set is T1, rat uterine nuclear estrogen receptor (Rattus norvegicus, UniProt P06211).
T1 construct: rat uterine nuclear estrogen receptor; host or cells: rat uterus, nuclear fraction
T1 sequence (P06211 1-600): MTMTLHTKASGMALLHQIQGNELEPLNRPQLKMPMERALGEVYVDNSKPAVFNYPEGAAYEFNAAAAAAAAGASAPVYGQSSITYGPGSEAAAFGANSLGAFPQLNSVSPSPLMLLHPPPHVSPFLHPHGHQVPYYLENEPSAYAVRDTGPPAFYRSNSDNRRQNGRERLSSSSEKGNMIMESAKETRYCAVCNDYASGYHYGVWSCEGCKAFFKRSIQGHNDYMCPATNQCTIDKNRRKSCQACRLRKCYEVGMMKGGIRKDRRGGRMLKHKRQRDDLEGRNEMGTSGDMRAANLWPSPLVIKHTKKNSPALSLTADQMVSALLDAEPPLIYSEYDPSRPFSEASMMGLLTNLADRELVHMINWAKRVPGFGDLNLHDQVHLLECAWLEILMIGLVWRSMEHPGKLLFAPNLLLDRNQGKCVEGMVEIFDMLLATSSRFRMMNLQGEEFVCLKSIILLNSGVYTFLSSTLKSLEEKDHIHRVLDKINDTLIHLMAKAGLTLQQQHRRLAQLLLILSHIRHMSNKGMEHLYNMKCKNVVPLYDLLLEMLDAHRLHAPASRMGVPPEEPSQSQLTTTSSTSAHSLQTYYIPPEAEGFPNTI
The note with it: Martucci et al. 1976; cited from earlier work.

`C[C@]12CC[C@@H]3c4ccc(O)cc4CC[C@H]3[C@@H]1[C@@H](O)[C@@H](O)[C@@H]2O` [E4, 1,3,5 (10)-estratrien-3,15α,16α,17β-tetrol]: the “relative binding affinity, of 17β-estradiol (100%)” value was 0.3%.
